Results reported in US9309248B2, “Azaindolines” (Hoffmann-La Roche Inc., priority 2012, dated 2016).

Legend:
BIR2 domain of XIAP = target: T1, BIR2 domain of XIAP (Homo sapiens, UniProt P98170, C202A/C213G); assay: TR-FRET assay for BIR2 (inhibition of binding of XIAP BIR2 domain to SMAC-derived Peptide A); details: 6x Histidine-tagged BIR2 domain (amino acids 124-240 of XIAP) 10 nM, Peptide A 20 nM
T1 construct: 6× Histidine-tagged BIR2 domain, corresponding to amino acids 124-240 of XIAP
Protocol: (§1) TR-FRET Assay for BIR2 and BIR3
(§2) The ability of a test compound to inhibit the binding of BIR2 and/or BIR3 domains of the XIAP protein to Peptide A (a SMAC-derived peptide described below) evidences that the test compound acts as a SMAC-mimetic resulting in reactivation of a cell's apoptotic pathway.
(§3) The peptides were labeled with the fluorescent tags FITC or TAMRA and Kd values were determined by fluorescence polarization assay. […] The peptide sequence was derivatized with biotin to provide […]-(ε-biotin)-OH 1:2 TFA as the substrate for the TR-FRET assay.
The XIAP protein sequence was obtained from the SWISS-PROT protein sequence database and the BIR2 and BIR3 domains were derived from that. The sequence of the BIR2 domain used for the TR-FRET assay is […].
Time-resolved fluorescence resonance energy transfer (TR-FRET) signals were measured 1 hour later at room temperature. Test compound potency was assessed at 10 serially diluted concentrations. Percentage of inhibition at each concentration was determined to generate an IC50 value for each test compound.

BIR3 domain of XIAP = target: T2, BIR3 domain of XIAP (Homo sapiens, UniProt P98170); assay: TR-FRET assay for BIR3 (inhibition of binding of XIAP BIR3 domain to SMAC-derived Peptide A); details: 6x Histidine-tagged BIR3 domain (amino acids 241-356 of XIAP) 10 nM, Peptide A 20 nM
T2 construct: BIR3 domain, corresponding to amino acids 241-356 of XIAP
T2 sequence (P98170 with tags, fused parts or gaps): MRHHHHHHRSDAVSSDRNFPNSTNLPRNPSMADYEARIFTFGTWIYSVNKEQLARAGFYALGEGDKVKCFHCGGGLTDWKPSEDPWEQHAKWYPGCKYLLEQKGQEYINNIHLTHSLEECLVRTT
Protocol: as §1, §2, §3
The sequence of the BIR3 domain used for the TR-FRET assay is […]
Ten nanomolar of 6× Histidine-tagged BIR2 domain, corresponding to amino acids 124-240 of XIAP, or BIR3 domain, corresponding to amino acids 241-356 of XIAP, was mixed with 20 nM of the peptide […]-(z-biotin)-OH 1:2 TFA, in the presence of 50 mM Tris-Cl, pH 7.5, 100 mM NaCl, 1 mM dithiothreitol (DTT) and 0.1 mg/mL bovine serum albumin (BSA). Following a […] incubation at 37° C., Europium-Streptavidin and Allophycocyanin conjugated anti-Histidine antibody were added to a final concentration of 1.5 nM and 15 nM, respectively. Time-resolved fluorescence resonance energy transfer (TR-FRET) signals were measured 1 hour later at room temperature. Test compound potency was assessed at 10 serially diluted concentrations. Percentage of inhibition at each concentration was determined to generate an IC50 value for each test compound.

T1 sequence (P98170 with tags, fused parts or gaps C202A/C213G): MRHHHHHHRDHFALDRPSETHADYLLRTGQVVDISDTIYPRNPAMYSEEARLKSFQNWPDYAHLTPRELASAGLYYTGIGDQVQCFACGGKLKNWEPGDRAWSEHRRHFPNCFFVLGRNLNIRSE

SMILES | IC50 (BIR2 domain of XIAP) [µM] | IC50 (BIR3 domain of XIAP) [µM]
CCNC(=O)C1Cc2cccnc2N1C(=O)[C@@H](NC(=O)[C@H](C)NC)C(C)C (mixture of isomers) [Example 1, (R,S)-1-[(S)-3-Methyl-2-((S)-2-methylamino-propionylamino)-butyryl]-2,3-dihydro-1H-pyrrolo[2,3-b]pyridine-2-carboxylic acid ethylamide] | 1.04 | > 54.8
CN[C@@H](C)C(=O)N[C@H](C(=O)N1CC(C)(C)c2cccnc21)C(C)C [Example 2, (S)—N—[(S)-1-(3,3-Dimethyl-2,3-dihydro-pyrrolo[2,3-b]pyridine-1-carbonyl)-2-methyl-propyl]-2-methylamino-propionamide] | 3.88 | > 54.8
CC[C@H](NC)C(=O)N[C@H](C(=O)N1CC(C)(C)c2cccnc21)C(C)C [Example 3, (S)—N—[(S)-1-(3,3-Dimethyl-2,3-dihydro-pyrrolo[2,3-b]pyridine-1-carbonyl)-2-methyl-propyl]-2-methylamino-butyramide] | 4.03 | > 54.8
CCNC(=O)C1Cc2cccnc2N1C(=O)[C@@H](NC(=O)[C@H](C)NC)C1CCCCC1 (stereo partly drawn) [Example 4, (R,S)-1-[(S)-2-Cyclohexyl-2-((S)-2-methylamino-propionylamino)-acetyl]-2,3-dihydro-1H-pyrrolo[2,3-b]pyridine-2-carboxylic acid ethylamide] | 2.12 | > 54.8
CCNC(=O)C1Cc2cccnc2N1C(=O)[C@@H](NC(=O)[C@H](CC)NC)C1CCCCC1 (stereo partly drawn) [Example 5, (R,S)-1-[(S)-2-Cyclohexyl-2-((S)-2-methylamino-butyrylamino)-acetyl]-2,3-dihydro-1H-pyrrolo[2,3-b]pyridine-2-carboxylic acid ethylamide] | 1.86 | > 54.8
CCNC(=O)C1Cc2cccnc2N1C(=O)[C@@H](NC(=O)[C@H](C)NC)[C@@H](C)CC (stereo partly drawn) [Example 6, (R,S)-1-[(2S,3S)-3-Methyl-2-((S)-2-methylamino-propionylamino)-pentanoyl]-2,3-dihydro-1H-pyrrolo[2,3-b]pyridine-2-carboxylic acid ethylamide] | 1.28 | > 54.8
CCNC(=O)C1Cc2cccnc2N1C(=O)[C@@H](NC(=O)[C@H](CC)NC)[C@@H](C)CC (stereo partly drawn) [Example 7, (R,S)-1-[(2S,3S)-3-Methyl-2-((S)-2-methylamino-butyrylamino)-pentanoyl]-2,3-dihydro-1H-pyrrolo[2,3-b]pyridine-2-carboxylic acid ethylamide] | 1.03 | > 54.8
CN[C@@H](C)C(=O)N[C@H](C(=O)N1c2ncccc2C[C@@H]1C(=O)Nc1ccccc1OC)C(C)C [Example 9, (R)-1-[(S)-3-Methyl-2-((S)-2-methylamino-propionylamino)-butyryl]-2,3-dihydro-1H-pyrrolo[2,3-b]pyridine-2-carboxylic acid (2-methoxy-phenyl)-amide] | 12.7 | > 54.8
CN[C@@H](C)C(=O)N[C@H](C(=O)N1c2ncccc2C[C@@H]1C(=O)Nc1ccccc1)C(C)C [Example 12, (R)-1-[(S)-3-Methyl-2-((S)-2-methylamino-propionylamino)-butyryl]-2,3-dihydro-1H-pyrrolo[2,3-b]pyridine-2-carboxylic acid phenylamide] | > 54.8 | > 54.8
CN[C@@H](C)C(=O)N[C@H](C(=O)N1c2ncccc2C[C@@H]1C(=O)Nc1ccccc1C)C(C)C [Example 13, (R)-1-[(S)-3-Methyl-2-((S)-2-methylamino-propionylamino)-butyryl]-2,3-dihydro-1H-pyrrolo[2,3-b]pyridine-2-carboxylic acid o-tolylamide] | > 54.8 | > 54.8
CN[C@@H](C)C(=O)N[C@H](C(=O)N1c2ncccc2C[C@@H]1C(=O)NCc1ccccc1)C(C)C [Example 15, (R)-1-[(S)-3-Methyl-2-((S)-2-methylamino-propionylamino)-butyryl]-2,3-dihydro-1H-pyrrolo[2,3-b]pyridine-2-carboxylic acid benzylamide] | 1.8 | 45.9
CN[C@@H](C)C(=O)N[C@H](C(=O)N1c2ncccc2C[C@@H]1C(=O)Nc1cnccc1C)C(C)C [Example 20, (R)-1-[(S)-3-Methyl-2-((S)-2-methylamino-propionylamino)-butyryl]-2,3-dihydro-1H-pyrrolo[2,3-b]pyridine-2-carboxylic acid (4-methyl-pyridin-3-yl)-amide] | 1.36 | > 54.8

Compounds with a lower IC50 (BIR2 domain of XIAP), results first:

IC50 (BIR2 domain of XIAP) [µM] | IC50 (BIR3 domain of XIAP) [µM] | SMILES
0.501 | > 54.8 | CN[C@@H](C)C(=O)N[C@H](C(=O)N1c2ncccc2CC1C(N)=O)C(C)C (stereo partly drawn) [Example 8, (R,S)-1-[(S)-3-Methyl-2-((S)-2-methylamino-propionylamino)-butyryl]-2,3-dihydro-1H-pyrrolo[2,3-b]pyridine-2-carboxylic acid amide]
0.0841 | 25.9 | CN[C@@H](C)C(=O)N[C@H](C(=O)N1c2ncccc2C[C@H]1C(=O)Nc1ccccc1OC)C(C)C [Example 10, (S)-1-[(S)-3-Methyl-2-((S)-2-methylamino-propionylamino)-butyryl]-2,3-dihydro-1H-pyrrolo[2,3-b]pyridine-2-carboxylic acid (2-methoxy-phenyl)-amide]
0.0635 | > 54.8 | CN[C@@H](C)C(=O)N[C@H](C(=O)N1c2ncccc2C[C@H]1C(=O)Nc1ccccc1)C(C)C [Example 11, (S)-1-[(S)-3-Methyl-2-((S)-2-methylamino-propionylamino)-butyryl]-2,3-dihydro-1H-pyrrolo[2,3-b]pyridine-2-carboxylic acid phenylamide]
0.0335 | > 54.8 | CN[C@@H](C)C(=O)N[C@H](C(=O)N1c2ncccc2C[C@H]1C(=O)Nc1ccccc1C)C(C)C [Example 14, (S)-1-[(S)-3-Methyl-2-((S)-2-methylamino-propionylamino)-butyryl]-2,3-dihydro-1H-pyrrolo[2,3-b]pyridine-2-carboxylic acid o-tolylamide]
0.159 | 3.95 | CN[C@@H](C)C(=O)N[C@H](C(=O)N1c2ncccc2C[C@H]1C(=O)NCc1ccccc1)C(C)C [Example 16, (S)-1-[(S)-3-Methyl-2-((S)-2-methylamino-propionylamino)-butyryl]-2,3-dihydro-1H-pyrrolo[2,3-b]pyridine-2-carboxylic acid benzylamide]
0.392 | 24.3 | CN[C@@H](C)C(=O)N[C@H](C(=O)N1c2ncccc2C[C@H]1C(=O)NCc1cc(Cl)ccc1C)C(C)C [Example 17, (S)-1-[(S)-3-Methyl-2-((S)-2-methylamino-propionylamino)-butyryl]-2,3-dihydro-1H-pyrrolo[2,3-b]pyridine-2-carboxylic acid 5-chloro-2-methyl-benzylamide]
0.108 | 37.6 | CN[C@@H](C)C(=O)N[C@H](C(=O)N1c2ncccc2C[C@H]1C(=O)Nc1ccccc1-c1ccccc1)C(C)C [Example 18, (S)-1-[(S)-3-Methyl-2-((S)-2-methylamino-propionylamino)-butyryl]-2,3-dihydro-1H-pyrrolo[2,3-b]pyridine-2-carboxylic acid biphenyl-2-ylamide]
0.0545 | 35.1 | CN[C@@H](C)C(=O)N[C@H](C(=O)N1c2ncccc2C[C@H]1C(=O)Nc1cccc2ccccc12)C(C)C [Example 19, (S)-1-[(S)-3-Methyl-2-((S)-2-methylamino-propionylamino)-butyryl]-2,3-dihydro-1H-pyrrolo[2,3-b]pyridine-2-carboxylic acid naphthalen-1-ylamide]
0.275 | > 54.8 | CN[C@@H](C)C(=O)N[C@H](C(=O)N1c2ncccc2C[C@H]1C(=O)Nc1ccc(F)cc1)C(C)C [Example 21, (S)-1-[(S)-3-Methyl-2-((S)-2-methylamino-propionylamino)-butyryl]-2,3-dihydro-1H-pyrrolo[2,3-b]pyridine-2-carboxylic acid (4-fluoro-phenyl)-amide]
0.103 | > 54.8 | CN[C@@H](C)C(=O)N[C@H](C(=O)N1c2ncccc2C[C@H]1C(=O)Nc1ccc(F)cc1C)C(C)C [Example 22, (S)-1-[(S)-3-Methyl-2-((S)-2-methylamino-propionylamino)-butyryl]-2,3-dihydro-1H-pyrrolo[2,3-b]pyridine-2-carboxylic acid (4-fluoro-2-methyl-phenyl)-amide]
